Laboratory results reported in the supplement of paper PMC13380429.

Columns and labels:
Conditions in all cases: 72 h
Calu-3 [1] = test: drug sensitivity score (DSS) for viability; higher = more toxic; extreme values may be limits of the assay
HepG2 [2] = test: as above
U2OS [3] = test: as above
Vero E6 [4] = test: as above
Caco-2 [5] = test: cell viability relative to DMSO; higher = less toxic
HepG2 [6] = test: as above
U2OS [7] = test: as above
Vero E6 [8] = test: as above
Caco-2 [9] = test: relative viability EC50 (midpoint between 100% and the lowest measured viability); higher = less toxic
HepG2 [10] = test: as above
U2OS [11] = test: as above
Vero E6 [12] = test: as above
Caco-2 [13] = test: drug sensitivity score (DSS) for viability; higher = more toxic; extreme values may be limits of the assay
Calu-3 [14] = test: cell viability relative to DMSO; higher = less toxic

## O=C(CCCN1CCN(c2ccccn2)CC1)c1ccc(F)cc1 [azaperone]
Calu-3 [1]
  drug sensitivity score: 0.1
HepG2 [2]
  drug sensitivity score: 0.7
U2OS [3]
  drug sensitivity score: 0
Vero E6 [4]
  drug sensitivity score: 0

## CN(C)CCn1nnnc1SCC1=C(C(=O)O)N2C(=O)[C@@H](NC(=O)Cc3csc(N)n3)[C@H]2SC1 [cefotiam]
Caco-2 [5]; 1 nM
  cell viability: 106%
Caco-2 [5]; 10 nM
  cell viability: 96.7%
Caco-2 [5]; 100 nM
  cell viability: 101%
Caco-2 [5]; 1000 nM
  cell viability: 103%
Caco-2 [5]; 10000 nM
  cell viability: 104%
HepG2 [6]; 1 nM
  cell viability: 102%
HepG2 [6]; 10 nM
  cell viability: 94.5%
HepG2 [6]; 100 nM
  cell viability: 99.7%
HepG2 [6]; 1000 nM
  cell viability: 96.5%
HepG2 [6]; 10000 nM
  cell viability: 104%
U2OS [7]; 1 nM
  cell viability: 100%
U2OS [7]; 10 nM
  cell viability: 97.2%
U2OS [7]; 100 nM
  cell viability: 106%
U2OS [7]; 1000 nM
  cell viability: 103%
U2OS [7]; 10000 nM
  cell viability: 103%
Vero E6 [8]; 1 nM
  cell viability: 99.3%
Vero E6 [8]; 10 nM
  cell viability: 95.5%
Vero E6 [8]; 100 nM
  cell viability: 96%
Vero E6 [8]; 1000 nM
  cell viability: 88.1%
Vero E6 [8]; 10000 nM
  cell viability: 104%
Caco-2 [9]
  relative viability EC50: > 10 µM
HepG2 [10]
  relative viability EC50: > 10 µM
U2OS [11]
  relative viability EC50: > 10 µM
Vero E6 [12]
  relative viability EC50: > 10 µM
Caco-2 [13]
  drug sensitivity score: 0
HepG2 [2]
  drug sensitivity score: 0
U2OS [3]
  drug sensitivity score: 0
Vero E6 [4]
  drug sensitivity score: 0

## CCCNC(=O)NS(=O)(=O)c1ccc(Cl)cc1 [chlorpropamide]
Caco-2 [5]; 1 nM
  cell viability: 92.6%
Caco-2 [5]; 10 nM
  cell viability: 108%
Caco-2 [5]; 100 nM
  cell viability: 87.1%
Caco-2 [5]; 1000 nM
  cell viability: 99.1%
Caco-2 [5]; 10000 nM
  cell viability: 95.2%
HepG2 [6]; 1 nM
  cell viability: 104%
HepG2 [6]; 10 nM
  cell viability: 103%
HepG2 [6]; 100 nM
  cell viability: 102%
HepG2 [6]; 1000 nM
  cell viability: 95.4%
HepG2 [6]; 10000 nM
  cell viability: 99.8%
U2OS [7]; 1 nM
  cell viability: 97.4%
U2OS [7]; 10 nM
  cell viability: 103%
U2OS [7]; 100 nM
  cell viability: 97.4%
U2OS [7]; 1000 nM
  cell viability: 99.9%
U2OS [7]; 10000 nM
  cell viability: 93.6%
Vero E6 [8]; 1 nM
  cell viability: 97.5%
Vero E6 [8]; 10 nM
  cell viability: 98.2%
Vero E6 [8]; 100 nM
  cell viability: 102%
Vero E6 [8]; 1000 nM
  cell viability: 103%
Vero E6 [8]; 10000 nM
  cell viability: 104%
Caco-2 [9]
  relative viability EC50: > 10 µM
HepG2 [10]
  relative viability EC50: > 10 µM
U2OS [11]
  relative viability EC50: > 10 µM
Vero E6 [12]
  relative viability EC50: > 10 µM
Caco-2 [13]
  drug sensitivity score: 0
HepG2 [2]
  drug sensitivity score: 0
U2OS [3]
  drug sensitivity score: 0
Vero E6 [4]
  drug sensitivity score: 0

## C#C[C@]1(O)CC[C@H]2[C@@H]3CCC4=Cc5oncc5C[C@]4(C)[C@H]3CC[C@@]21C [danazol]
Calu-3 [1]
  drug sensitivity score: 0
HepG2 [2]
  drug sensitivity score: 0
U2OS [3]
  drug sensitivity score: 0
Vero E6 [4]
  drug sensitivity score: 0

## CCN1C(=O)NC(c2ccccc2)C1=O (centres undefined) [ethotoin]
HepG2 [2]
  drug sensitivity score: 0
U2OS [3]
  drug sensitivity score: 0
Vero E6 [4]
  drug sensitivity score: 0

## CCOc1ccc2nc(S(N)(=O)=O)sc2c1 [ethoxzolamide]
Caco-2 [5]; 10 nM
  cell viability: 102%
Caco-2 [5]; 100 nM
  cell viability: 135%
Caco-2 [5]; 1000 nM
  cell viability: 98.6%
Caco-2 [5]; 10000 nM
  cell viability: 95.5%
Calu-3 [14]; 1 nM
  cell viability: 95.3%
Calu-3 [14]; 10 nM
  cell viability: 101%
Calu-3 [14]; 100 nM
  cell viability: 101%
Calu-3 [14]; 1000 nM
  cell viability: 101%
Calu-3 [14]; 10000 nM
  cell viability: 113%
HepG2 [6]; 1 nM
  cell viability: 101%
HepG2 [6]; 10 nM
  cell viability: 104%
HepG2 [6]; 100 nM
  cell viability: 98.6%
HepG2 [6]; 1000 nM
  cell viability: 125%
HepG2 [6]; 10000 nM
  cell viability: 116%
U2OS [7]; 1 nM
  cell viability: 96.6%
U2OS [7]; 10 nM
  cell viability: 97.9%
U2OS [7]; 100 nM
  cell viability: 97.6%
U2OS [7]; 1000 nM
  cell viability: 99.3%
U2OS [7]; 10000 nM
  cell viability: 105%
Vero E6 [8]; 1 nM
  cell viability: 84.1%
Vero E6 [8]; 10 nM
  cell viability: 93.1%
Vero E6 [8]; 100 nM
  cell viability: 89.4%
Vero E6 [8]; 1000 nM
  cell viability: 96.3%
Vero E6 [8]; 10000 nM
  cell viability: 116%
Caco-2 [13]
  drug sensitivity score: 0
Calu-3 [1]
  drug sensitivity score: 0
HepG2 [2]
  drug sensitivity score: 0
U2OS [3]
  drug sensitivity score: 0
Vero E6 [4]
  drug sensitivity score: 0

## CCOC(=O)c1ccc(NC2CCCCC2)c(N)c1 [ferrostatin-1]
Caco-2 [5]; 1 nM
  cell viability: 99.8%
Caco-2 [5]; 10 nM
  cell viability: 99.9%
Caco-2 [5]; 100 nM
  cell viability: 102%
Caco-2 [5]; 1000 nM
  cell viability: 102%
Caco-2 [5]; 10000 nM
  cell viability: 86.1%
HepG2 [6]; 1 nM
  cell viability: 94%
HepG2 [6]; 10 nM
  cell viability: 108%
HepG2 [6]; 100 nM
  cell viability: 97.8%
HepG2 [6]; 1000 nM
  cell viability: 97%
HepG2 [6]; 10000 nM
  cell viability: 113%
U2OS [7]; 1 nM
  cell viability: 97.5%
U2OS [7]; 10 nM
  cell viability: 96.6%
U2OS [7]; 100 nM
  cell viability: 98.6%
U2OS [7]; 1000 nM
  cell viability: 98.9%
U2OS [7]; 10000 nM
  cell viability: 96.6%
Vero E6 [8]; 1 nM
  cell viability: 97.6%
Vero E6 [8]; 10 nM
  cell viability: 101%
Vero E6 [8]; 100 nM
  cell viability: 94.3%
Vero E6 [8]; 1000 nM
  cell viability: 95.1%
Vero E6 [8]; 10000 nM
  cell viability: 100%
Caco-2 [9]
  relative viability EC50: > 10 µM
HepG2 [10]
  relative viability EC50: > 10 µM
U2OS [11]
  relative viability EC50: > 10 µM
Vero E6 [12]
  relative viability EC50: > 10 µM
Caco-2 [13]
  drug sensitivity score: 0.1
HepG2 [2]
  drug sensitivity score: 0
U2OS [3]
  drug sensitivity score: 0
Vero E6 [4]
  drug sensitivity score: 0

## CC1CCc2cc(F)cc3c(=O)c(C(=O)O)cn1c23 (centres undefined) [flumequine]
Caco-2 [5]; 1 nM
  cell viability: 91%
Caco-2 [5]; 10 nM
  cell viability: 75.1%
Caco-2 [5]; 100 nM
  cell viability: 96.5%
Caco-2 [5]; 1000 nM
  cell viability: 112%
Caco-2 [5]; 10000 nM
  cell viability: 121%
HepG2 [6]; 1 nM
  cell viability: 95.3%
HepG2 [6]; 10 nM
  cell viability: 97.7%
HepG2 [6]; 100 nM
  cell viability: 89.4%
HepG2 [6]; 1000 nM
  cell viability: 96.4%
HepG2 [6]; 10000 nM
  cell viability: 92.7%
U2OS [7]; 1 nM
  cell viability: 98.1%
U2OS [7]; 10 nM
  cell viability: 98.3%
U2OS [7]; 100 nM
  cell viability: 102%
U2OS [7]; 1000 nM
  cell viability: 97.9%
U2OS [7]; 10000 nM
  cell viability: 104%
Vero E6 [8]; 1 nM
  cell viability: 103%
Vero E6 [8]; 10 nM
  cell viability: 94.7%
Vero E6 [8]; 100 nM
  cell viability: 107%
Vero E6 [8]; 1000 nM
  cell viability: 108%
Vero E6 [8]; 10000 nM
  cell viability: 92.1%
Caco-2 [9]
  relative viability EC50: > 10 µM
HepG2 [10]
  relative viability EC50: > 10 µM
U2OS [11]
  relative viability EC50: > 10 µM
Vero E6 [12]
  relative viability EC50: > 10 µM
Caco-2 [13]
  drug sensitivity score: 0
HepG2 [2]
  drug sensitivity score: 0
U2OS [3]
  drug sensitivity score: 0
Vero E6 [4]
  drug sensitivity score: 0

## C/C(=C\c1csc(C)n1)[C@@H]1C[C@@H]2O[C@]2(C)CCC[C@H](C)[C@H](O)[C@@H](C)C(=O)C(C)(C)[C@@H](O)CC(=O)N1 [ixabepilone]
Caco-2 [5]; 1 nM
  cell viability: 101%
Caco-2 [5]; 10 nM
  cell viability: 98.4%
Caco-2 [5]; 100 nM
  cell viability: 65.2%
Caco-2 [5]; 1000 nM
  cell viability: 48.8%
Caco-2 [5]; 10000 nM
  cell viability: 49.2%
Calu-3 [14]; 1 nM
  cell viability: 108%
Calu-3 [14]; 10 nM
  cell viability: 108%
Calu-3 [14]; 100 nM
  cell viability: 88.1%
Calu-3 [14]; 1000 nM
  cell viability: 67.2%
Calu-3 [14]; 10000 nM
  cell viability: 60.8%
HepG2 [6]; 1 nM
  cell viability: 107%
HepG2 [6]; 10 nM
  cell viability: 103%
HepG2 [6]; 100 nM
  cell viability: 43.6%
HepG2 [6]; 1000 nM
  cell viability: 33.6%
HepG2 [6]; 10000 nM
  cell viability: 17.3%
U2OS [7]; 1 nM
  cell viability: 99.7%
U2OS [7]; 10 nM
  cell viability: 99.3%
U2OS [7]; 100 nM
  cell viability: 101%
U2OS [7]; 1000 nM
  cell viability: 41.3%
U2OS [7]; 10000 nM
  cell viability: 28%
Vero E6 [8]; 1 nM
  cell viability: 108%
Vero E6 [8]; 10 nM
  cell viability: 108%
Vero E6 [8]; 100 nM
  cell viability: 84.6%
Vero E6 [8]; 1000 nM
  cell viability: 60.2%
Vero E6 [8]; 10000 nM
  cell viability: 36.5%
Caco-2 [9]
  relative viability EC50: 0.0664 µM
HepG2 [10]
  relative viability EC50: 0.0721 µM
U2OS [11]
  relative viability EC50: 0.556 µM
Vero E6 [12]
  relative viability EC50: 0.493 µM
Caco-2 [13]
  drug sensitivity score: 13.6
Calu-3 [1]
  drug sensitivity score: 7.2
HepG2 [2]
  drug sensitivity score: 21.7
U2OS [3]
  drug sensitivity score: 10.9
Vero E6 [4]
  drug sensitivity score: 9.1

## C=C1/C(=C\C=C2/CCC[C@]3(C)[C@@H]([C@H](C)OCCC(C)(C)O)CC[C@@H]23)C[C@@H](O)C[C@@H]1O [maxacalcitol]
Caco-2 [5]; 1 nM
  cell viability: 91.9%
Caco-2 [5]; 10 nM
  cell viability: 91.3%
Caco-2 [5]; 100 nM
  cell viability: 94.1%
Caco-2 [5]; 1000 nM
  cell viability: 87.8%
Caco-2 [5]; 10000 nM
  cell viability: 101%
HepG2 [6]; 1 nM
  cell viability: 105%
HepG2 [6]; 10 nM
  cell viability: 99.3%
HepG2 [6]; 100 nM
  cell viability: 98.3%
HepG2 [6]; 1000 nM
  cell viability: 91.5%
HepG2 [6]; 10000 nM
  cell viability: 98.5%
U2OS [7]; 1 nM
  cell viability: 102%
U2OS [7]; 10 nM
  cell viability: 103%
U2OS [7]; 100 nM
  cell viability: 93.5%
U2OS [7]; 1000 nM
  cell viability: 91.6%
U2OS [7]; 10000 nM
  cell viability: 97.4%
Vero E6 [8]; 1 nM
  cell viability: 109%
Vero E6 [8]; 10 nM
  cell viability: 105%
Vero E6 [8]; 100 nM
  cell viability: 102%
Vero E6 [8]; 1000 nM
  cell viability: 100%
Vero E6 [8]; 10000 nM
  cell viability: 94.6%
Caco-2 [9]
  relative viability EC50: > 10 µM
HepG2 [10]
  relative viability EC50: > 10 µM
U2OS [11]
  relative viability EC50: > 10 µM
Vero E6 [12]
  relative viability EC50: > 10 µM
Caco-2 [13]
  drug sensitivity score: 0
HepG2 [2]
  drug sensitivity score: 0
U2OS [3]
  drug sensitivity score: 0
Vero E6 [4]
  drug sensitivity score: 0
